# Molecular target: T1, 17β-HSD1 (Homo sapiens, UniProt P14061)
# T1 sequence (P14061 1-328): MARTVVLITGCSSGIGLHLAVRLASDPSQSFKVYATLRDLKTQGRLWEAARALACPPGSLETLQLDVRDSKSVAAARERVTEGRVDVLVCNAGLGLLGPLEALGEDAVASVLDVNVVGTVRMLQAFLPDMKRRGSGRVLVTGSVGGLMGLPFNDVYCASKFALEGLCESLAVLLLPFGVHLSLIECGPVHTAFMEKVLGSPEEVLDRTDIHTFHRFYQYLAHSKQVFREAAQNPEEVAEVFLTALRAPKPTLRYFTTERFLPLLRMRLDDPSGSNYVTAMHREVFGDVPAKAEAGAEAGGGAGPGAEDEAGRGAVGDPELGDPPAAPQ
# Format: biochemical
structure (smiles),measurement,setting,value
"COC(=O)CO[C@@H]1CC(=O)[C@@]2(C)CC[C@@H]3c4ccc(OCc5ccccc5)cc4CC[C@H]3[C@H]12 [Compound 22, 3-Benzyloxy-15β-(2’-methoxy-2’-oxoethoxy)-estra-1,3,5(10)-trien-17-one]","cofactor preference in terms of RIP values, favouring the NADPH bound enzyme",cofactor preference for NADPH in terms of RIP values,2–11 fold
same,17β-HSD1 inhibitory effect (in words),evaluation of potentials obtained with NADPH,potent inhibitors
